Laboratory results: patent US4552882A, “7-(1-Pyrrolyl) derivatives of 1-ethyl-1,4-dihydro-4-oxoquinoline-3-carboxylic acids and 1-ethyl-1,4-dihydro-4-oxo-1,8-naphthyridine-3-carboxylic acids and their use as antimicrobial agents” (Provesan, SA, priority 1983, dated 1985)
Converted amounts (≈) assume the structure as drawn.

Assays:
Assay in all cases: MIC in vitro
Format in all cases: cell-based
Proteus morganii CHSP 16 = settings: Morganella morganii, CHSP16, Dextrose agar, 37° C., 20 hours
Procedure: (§1) (G. L. Daquet and Y. A. Chabbect, Techniques en bacteriologie (Bacteriological techniques), vol. 3, Flammarion Medecine Sciences, Paris, 1972 and W. B. Hugo and A. D. Rusell, Pharmaceutical Microbiology, Blackwell Scientific Publications, London, (1977)). Antibiotic medium no. 1 (seed agar) (Oxoid CM 327) Tryptone-soya broth (Oxoid CM 129) Ringer's physiological solution 1/4 (oxoid BR 52) Dextrose agar (BBL-11165) 0.1 N NaOH "Proteus morganii" CHSP 16 Each of the microorganisms is seeded by streaking in tubes of Antibiotic medium No. 1 (seed agar), which are then incubated at 37° C. for 20 hours. Using a culture loop, the cultures are then seeded in tryptone-soyabroth and incubated at 37° C. for 20 hours. The culture obtained is diluted to 1/4 with Ringer's physiological solution, so as to obtain a standardized suspension of 10^7 -10^9 cfu/ml for each organism. Starting from a solution of 1,000 μg/ml in 0.1 N NaOH, each product is diluted in Dextrose agar (previously melted and maintained at 50° C.), with successive dilutions so as to obtain the following concentrations: 64--32--16--8--4--2--1--0.5--0.25--0.125 μg of derivative/ml medium. For each product, the solution of each concentration is subsequently distributed into Petri dishes 10 cm in diameter, with 10 ml of medium per dish and the same number of dishes as microorganisms to be tested. As soon as the medium has cooled, the dishes are seeded with the inoculations using 0.4 ml of inoculation per dish. They are spread with a Driglasky loop and the supernatant is removed. The seeded dishes are incubated at 37° C. for 20 hours.

[1] = system: Serratia marcescens ATCC 13880; settings: ATCC13880, Dextrose agar, 37° C., 20 hours
Procedure: as §1, with “"Serratia marcescens" ATCC 13880” for “"Proteus morganii" CHSP 16”

[2] = system: Staphylococcus aureus ATCC 5488/23; settings: ATCC5488, Dextrose agar, 37° C., 20 hours
Text: as §1, with “"Staphylococcus aureus" ATCC 5488/23” for “"Proteus morganii" CHSP 16”

Structure (SMILES)	MIC (Proteus morganii CHSP 16)	MIC [1]	MIC [2]
CCn1cc(C(=O)O)c(=O)c2ccc(-n3cccc3)cc21 [Example 1, 7-(1-pyrrolyl)-1-ethyl-1,4-dihydro-4-oxo-3-quinolinecarboxylic acid]	8 µg/mL (≈ 28.3 µM)	8 µg/mL (≈ 28.3 µM)	1 µg/mL (≈ 3.54 µM)
CCn1cc(C(=O)O)c(=O)c2cc(F)c(-n3cccc3)nc21 [Example 4, 1-ethyl-1,4-dihydro-4-oxo-6-fluoro-7-(1-pyrrolyl)-1,8-naphthyridine-3-carboxylic acid]	4 µg/mL (≈ 13.3 µM)	2 µg/mL (≈ 6.64 µM)	0.5 µg/mL (≈ 1.66 µM)
CCn1cc(C(=O)O)c(=O)c2cc(F)c(-n3cccc3)cc21 [Example 2, 6-fluoro-7-(1-pyrrolyl)-1-ethyl-1,4-dihydro-4-oxo-3-quinolinecarboxylic acid]	2 µg/mL (≈ 6.66 µM)	2 µg/mL (≈ 6.66 µM)	0.25 µg/mL (≈ 0.833 µM)
CCn1cc(C(=O)O)c(=O)c2ccc(-n3cccc3)nc21 [Example 3, 1-ethyl-1,4-dihydro-4-oxo-7-(1-pyrrolyl)-1,8-naphthyridine-3-carboxylic acid]	8 µg/mL (≈ 28.2 µM)	16 µg/mL (≈ 56.5 µM)	8 µg/mL (≈ 28.2 µM)
CCn1cc(C(=O)O)c(=O)c2cnc(N3CCNCC3)nc21 [Pipemidic acid, reference compound]	8 µg/mL (≈ 26.4 µM)	16 µg/mL (≈ 52.7 µM)	64 µg/mL (≈ 211 µM)
